The test system of one test is Jurkat FADD−/− cells. In words: Jurkat FADD−/− necroptosis assay. Format: cell-based. The note with it: Homo sapiens, 10 ng/mL huTNFα, 24 h, Cell Titer Glo viability, read-out: Jurkat NEC IC50. How it is done:
For the Jurkat FADD^−/− Necroptosis assay, compounds were serially diluted in 100% dimethyl sulfoxide (DMSO) (Sigma-Aldrich catalog no. 41641), and 250 nL was transferred to a sterile 384-well microtiter plate (PerkinElmer catalog no. 6007688) via Echo liquid handler (LABCYTE). Five thousand Jurkat FADD ^−/− cells (ATCC catalog no. CRL-2572) in 20 µL of modified Roswell Park Memorial Institute medium (Gibco catalog no. 10491), 10% fetal calf serum (Gibco catalog no. 100500), 1x Anti/Anti (Gibco catalog no. 15240-062), 1x L-Glutamax (Gibco catalog no. 35050-087), and 1% PenStrep (SIGMA catalog no. P4333) were seeded into each well of the prepared assay plate with compound. Cells and compounds were incubated for 30 min at 37 °C (humidified incubator with 5% CO2). After incubation, 5 µL of recombinant human TNFα (huTNFα) (Biotrend catalog no. cyt-223; 10 ng/mL final concentration [f.c.]) was added to the cells, followed by an incubation of 24 h at 37 °C. Following the incubation, the experimental plates were equilibrated to room temperature (30 min) before 25 µL of Cell Titer Glo Luminescent Cell Viability Assay System reagent (Promega catalog no. G7571) was added to the plate wells, incubated at room temperature for ∼10 min. After incubation, the samples were analyzed for luminescence by using an Envision reader (PerkinElmer).
Each assay plate contained wells with “high” and “low” controls. High controls (100% CTL) were defined as cells treated with DMSO, and low controls (0% CTL) were defined as cells treated with 10 ng/mL recombinant huTNFα. IC50 values were calculated based on the percentage of control values using a four-parameter-fitting model.
All cellular assays were done for Cpd 1, Cpd 2, Cpd 3, Cpd 4, and Cpd 5 in duplicate and in quadruplet for NSA.
Background: In ATP-based viability assays light output follows the ATP content of the culture.

Test [1] has as its target T1, MLKL F148A executioner domain (Homo sapiens, UniProt Q8NB16, F148A).
T1 construct: 80 µM MLKL N-terminal executioner domain (residues 1 to 154) was used; GST (thrombin cleavage site) (cleaved yes)
T1 sequence (Q8NB16 1-154 F148A): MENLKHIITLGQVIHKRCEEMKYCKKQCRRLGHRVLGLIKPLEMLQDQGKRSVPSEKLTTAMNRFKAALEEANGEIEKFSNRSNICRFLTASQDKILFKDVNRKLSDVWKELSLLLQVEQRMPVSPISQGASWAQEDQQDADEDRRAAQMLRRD
The experiment in a line: Functional NMR assay (detachment of α-helix 6), F148A variant. Format: biochemical. The text has this:
To test the significance of the additional interaction between α-helix 6 and the four-helix bundle provided by the xanthine compounds stacking to the phenyl ring of Phe148, we used a described functional NMR assay ([12]). Binding of phytic acid (IP6) and the detergent β-D-nonylmaltoside (NM) led to the detachment of α-helix 6, which can be monitored in ^1H,^15N-correlation spectra by the altered chemical shift of the Hε1–Nε1 correlation of Trp133 and the backbone N–H correlation of Ala141 ([12]). […] Adding 12 mM NM or 500 µM IP6 led to the appearance of a second very weak peak reporting on the detached α-helix 6 with a population of the activated state (pact) of 1% and 4%, respectively (Fig. 3). […]
Fig. 3. […] The spectra depicted in A are measured with the WT protein and in B with the F148A variant. […] The asterisk means that no active conformation could be detected. Double asterisks indicate data not determined.
For the functional NMR assay ^1H,^15N-correlation spectra were recorded on a Bruker Avance III HD 600-MHz NMR spectrometer equipped with a cryogenic QCI probe in 2.5-mm NMR tubes at 298 K. Spectra were recorded with 64 complex points in the indirect dimension, 96 scans, and an interscan delay of 2 s. […] Spectra were analyzed, and peaks were integrated in CcpNnmr analysis ([39]).

Consider `Cn1c(=O)c2c(nc(S(C)(=O)=O)n2C)n(CC#Cc2cccc(O)c2)c1=O` [Cpd 3], for which the IC50 in the test with Jurkat FADD−/− cells is 541 nM. Also, the “Induction of the active state by compound alone” value in test [1] (500 µM compound alone) is recorded as “small population of the active state”. The “Population of the activated state (pact), α-helix 6 detached” value in test [1] (12 mM NM + 500 µM IP6 + 500 µM compound) is given as 90%.

What is called IC50 is the concentration that inhibits the measured activity by half.
